From patent US20090208620A1, “Alimentary Compositions and Methods For Metabolic Modulation” (VDF FUTURECEUTICALS, INC., priority 2003, published 2009)
Values joined by “and” are separate entries in the source; they are usually repeats but may differ in a detail not shown here. Identical values can stand only once.

Columns and labels:
activated AMPK = assay: Western immunoblot for activated (phospho-Thr172) AMPK in muscle cells; format: cell-based, mouse; settings: for FOLD AMPK ACTIVATION (OVER CONTROL): cells treated 30 minutes at 37° C
Procedure: (§1) The levels of Glut-4, activated AMPK and activated Akt were measured in mouse muscle cells C2C12 (from ATTC) and in primary culture of human skeletal muscle cells (Clonetics, Inc.) using Western immunoblotting. C2C12 cells were plated at 1.5×1-exp5 cells per mL/well (12-well plate) in standard cell culture medium (DMEM supplemented with 10% fetal bovine serum (FBS), 25 mM glucose, 20 mM Hepes, 4 mM glutamine and 2 mM sodium pyruvate. 48 hrs after the plating, medium was changed to differentiation medium (DMEM supplemented with 5 mM of glucose and 0.5% of FBS) for next 3-4 days to stimulate the formation of myotubes. Three hours before the treatment with selected agents, cells were washed with PBS and transferred to PBS supplemented with 5 mM of glucose.
(§2) Human skeletal muscle cells (HSKM) were cultured in SKBM-2 mediums provided by Clonetics. 48 hrs after cell plating, medium was changed to SKBM medium to stimulate differentiation of the cells to myotubes. When differentiated, the myotubes were transferred to PBS supplemented with 5 mM glucose for three hrs before the treatment.
(§3) Analysis of C2C12 cells for the level of activated AMPK, Akt and the level of GLUT-4 was performed in the same experimental system. The cells were treated for 30 minutes at 37° C. […] Subsequently, 20 μg per sample of sample protein was used for Western analysis using NuPage 10% Bis/Tris gels (Invitrogen). After exposure of membranes to primary and secondary antibodies AMPK, AKT or Glut-4 was detected using ECL-Plus (Amersham) following producer's instruction. Chemilumiscent signals were detected by using ChemiDoc system from Biorad. Intensity of detected signals were analyzed and measured using Quantity One software (Biorad). Alternatively, the level of phosphorylated AMPK was detected using ECL kit from Amersham and short exposure to Kodak films.
(§4) Experimental setup: Cell Culture was followed by treatment with selected contemplated compounds, which was followed by cell lysis and western blot analysis for AMPK, Akt, GLUT4, total AMPK, and total Akt. Signals were acquired accordingly.

activated Akt = assay: Western immunoblot for activated (phospho-Ser473) Akt in muscle cells; format: cell-based, mouse; settings: for FOLD AKT ACTIVATION (OVER CONTROL): cells treated 30 minutes at 37° C
Procedure: as §1, §2, §3, §4

GLUT-4 = assay: Western immunoblot for GLUT-4 protein level in C2C12 cells; format: cell-based, mouse
Procedure: as §1
Analysis of C2C12 cells for the level of activated AMPK, Akt and the level of GLUT-4 was performed in the same experimental system. The cells were treated for 30 minutes at 37° C. After the treatment, the cells were washed with ice-cold PBS and lysed with 80 μl of lysis buffer/well (M-PER buffer from Pierce supplemented with protease and phosphatase inhibitor mix (Calbiochem) for 10 minutes on ice. Next, the plates were transferred to −20° C. to improve the lysis of the cells. Next cells were sonicated for 5 minutes and lysate was transferred to Eppendorf tubes and centrifuged at 14,000 rpm for 10 minutes. Supernatants were collected in fresh Eppendorf tubes and kept on ice to measure the amount of total proteins. 3 μl of each lysate was used to measure the protein concentration using standard Bradford method (Biorad). Subsequently, 20 μg per sample of sample protein was used for Western analysis using NuPage 10% Bis/Tris gels (Invitrogen). After exposure of membranes to primary and secondary antibodies AMPK, AKT or Glut-4 was detected using ECL-Plus (Amersham) following producer's instruction. Chemilumiscent signals were detected by using ChemiDoc system from Biorad. Intensity of detected signals were analyzed and measured using Quantity One software (Biorad). Alternatively, the level of phosphorylated AMPK was detected using ECL kit from Amersham and short exposure to Kodak films.
Experimental setup: Cell Culture was followed by treatment with selected contemplated compounds, which was followed by cell lysis and western blot analysis for AMPK, Akt, GLUT4, total AMPK, and total Akt. Signals were acquired accordingly. Primary antibodies used in these studies are the following: Anti-phospho-AMPK (Thr172), mouse, rabbit IgG, from Cell Signaling, #2531; Anti-phospho-Akt (Ser473), mouse, rabbit IgG, Cell Signaling, #9271; Anti-Glut-4, mouse, rabbit IgG, Calbiochem, #400064; Anti-AMPK (total), mouse, rabbit IgG, Cell Signaling, #2532; Anti-Akt (total), mouse, rabbit IgG, Cell Signaling, #9272.
The effects of kinetin, N^2-Acetyl-Guanosine and N^2-Acetyl-Guanine on GLUT-4 protein level in C2C12 cells were investigated following the same experimental design as described for AMPK and AKT. Anti-Glut-4 antibody used in this study was from Calbiochem. […] Table 3 refers to multiple independent experiments where multiple identical concentrations for the same reagents are indicated.

muscle cells = assay: Total glucose uptake in vitro with fluorescent glucose analog; format: cell-based; settings: for AVERAGE (N = 3) fluorescence of fluorescent glucose in the cells / FOLD CHANGE IN TOTAL GLUCOSE UPTAKE (OVER CONTROL): 30 minutes at 37 C
Procedure: Total glucose uptake was measured using fluorescent glucose analog from Molecular Probes. Briefly, muscle cells were treated with kinetin, N^2-Acetyl-Guanosine and N^2-Acetyl-Guanine for 30 minutes at 37 C first and subsequently, these cells were exposed to 500 μM of fluorescent glucose analog for 5 minutes at room temperature. Next, cells were washed twice with cold Krebs-Hepes buffered solution and fixed in 70% ethanol in water. Fluorescence of fluorescent glucose in the cells was measured using fluorescent plate reader at 480/530 nm (excitation/emission). […] Table 4 refers to multiple independent experiments where multiple identical concentrations for the same reagents are indicated.

[1] = test system: rat epitrochlearis muscle; assay: Glucose uptake in rat epitrochlearis muscle; format: cell-based; parameters: unit not given here; settings: 60 minute incubation at 37 C, 10 minute transport at 30 C
Procedure: Glucose uptake in rat epitrochlearis muscle was determined following a protocol substantially as described by Brozinick, J. T., and Birnbaum, M. J. (1998) J. Biol. Chem. 273(24), […]. Results are listed in Tables 5 and 6, wherein data of Table 5 were obtained for 60 minute incubations (at 37 C), 10 minute transport at (30 C) and data of Table 6 were obtained for 60 minute incubations (at 37 C), 10 minute transport at (30 C) of the compounds as indicated (K is kinetin, AG is N2-acetylguanine).

[2] = concentration 0.15 (unit not given)
[3] = concentration 0.3 (unit not given)
[4] = concentration 1.5 (unit not given)
[5] = concentration 3.75 (unit not given)
[6] = concentration 7.5 (unit not given)

CC(=O)Nc1nc2nc[nH]c2c(=O)[nH]1 [N^2-Acetyl-Guanine, N2-acetylguanine]
FOLD AMPK ACTIVATION (OVER CONTROL) (activated AMPK; 0.3 microM): 5.42 fold | FOLD AMPK ACTIVATION (OVER CONTROL) (activated AMPK; 1.5 microM): 5.85 fold | FOLD AMPK ACTIVATION (OVER CONTROL) (activated AMPK; 7.5 microM): 6.00 fold | FOLD AMPK ACTIVATION (OVER CONTROL) (activated AMPK; 37.5 microM): 6.51 fold | effect on AMPK activity (in words) (activated AMPK; no concentration stated): potent activators of AMPK | FOLD AKT ACTIVATION (OVER CONTROL) (activated Akt; 0.3 microM): 3.50 fold and 2.44 fold | FOLD AKT ACTIVATION (OVER CONTROL) (activated Akt; 7.5 microM): 2.58 fold and 1.95 fold | effect on Akt activity (in words) (activated Akt; no concentration stated): potent activators of AMPK as well as Akt | effect on GLUT-4 protein level (in words) (GLUT-4): potently increase GLUT-4 protein level | FOLD CHANGE IN GLUT-4 LEVEL (OVER CONTROL) (GLUT-4; 0.3 microM): 3.94 fold | FOLD CHANGE IN GLUT-4 LEVEL (OVER CONTROL) (GLUT-4; 1.5 microM): 3.84 fold | FOLD CHANGE IN GLUT-4 LEVEL (OVER CONTROL) (GLUT-4; 7.5 microM): 3.24 fold | FOLD CHANGE IN GLUT-4 LEVEL (OVER CONTROL) (GLUT-4; 37.5 microM): 2.80 fold | effect on glucose uptake in muscle cells in vitro (in words) (muscle cells): potently enhance glucose uptake in muscle cells in vitro | AVERAGE (N = 3) fluorescence of fluorescent glucose in the cells (muscle cells; [2]): 86.4 +/− 2.3 | FOLD CHANGE IN TOTAL GLUCOSE UPTAKE (OVER CONTROL) (muscle cells; [2]): 1.85 fold | AVERAGE (N = 3) fluorescence of fluorescent glucose in the cells (muscle cells; [3]): 54.5 +/− 1.7 | FOLD CHANGE IN TOTAL GLUCOSE UPTAKE (OVER CONTROL) (muscle cells; [3]): 2.68 fold | AVERAGE (N = 3) fluorescence of fluorescent glucose in the cells (muscle cells; [4]): 55.2 +/− 0.8 | FOLD CHANGE IN TOTAL GLUCOSE UPTAKE (OVER CONTROL) (muscle cells; [4]): 2.71 fold | AVERAGE (N = 3) fluorescence of fluorescent glucose in the cells (muscle cells; [5]): 115.9 +/− 3.7 | FOLD CHANGE IN TOTAL GLUCOSE UPTAKE (OVER CONTROL) (muscle cells; [5]): 2.48 fold | AVERAGE (N = 3) fluorescence of fluorescent glucose in the cells (muscle cells; [6]): 59.6 +/− 0.4 | FOLD CHANGE IN TOTAL GLUCOSE UPTAKE (OVER CONTROL) (muscle cells; [6]): 2.93 fold | Glucose uptake, Mean ([1]; 0.1 uM): 1.12 | Glucose uptake, Mean ([1]; 0.4 uM): 1.43
